Tests used:
Format in all cases: biochemical
B-Raf = B-Raf (Homo sapiens, UniProt P15056); test: Kinase activity assay, B-Raf; settings: under the test conditions employed; read-out: activity toward kinase B-Raf, IC50
Source text: (§1) Assays for the activity of kinases, including, but not limited to, B-Raf, B-Raf V600E, B-Raf […] and c-Raf-1 are known in the art, for example as described in U.S. patent application Ser. No. 11/473,347 (see Iso, PCT publication WO2007002433), the disclosure of which is hereby incorporated by reference in its entirety.

B-Raf V600E = B-Raf V600E (Homo sapiens, UniProt P15056, V600E); test: Kinase activity assay, B-Raf V600E; settings: under the test conditions employed; read-out: activity toward kinase B-Raf V600E, IC50
Chain of B-Raf V600E (P15056 whole entry V600E): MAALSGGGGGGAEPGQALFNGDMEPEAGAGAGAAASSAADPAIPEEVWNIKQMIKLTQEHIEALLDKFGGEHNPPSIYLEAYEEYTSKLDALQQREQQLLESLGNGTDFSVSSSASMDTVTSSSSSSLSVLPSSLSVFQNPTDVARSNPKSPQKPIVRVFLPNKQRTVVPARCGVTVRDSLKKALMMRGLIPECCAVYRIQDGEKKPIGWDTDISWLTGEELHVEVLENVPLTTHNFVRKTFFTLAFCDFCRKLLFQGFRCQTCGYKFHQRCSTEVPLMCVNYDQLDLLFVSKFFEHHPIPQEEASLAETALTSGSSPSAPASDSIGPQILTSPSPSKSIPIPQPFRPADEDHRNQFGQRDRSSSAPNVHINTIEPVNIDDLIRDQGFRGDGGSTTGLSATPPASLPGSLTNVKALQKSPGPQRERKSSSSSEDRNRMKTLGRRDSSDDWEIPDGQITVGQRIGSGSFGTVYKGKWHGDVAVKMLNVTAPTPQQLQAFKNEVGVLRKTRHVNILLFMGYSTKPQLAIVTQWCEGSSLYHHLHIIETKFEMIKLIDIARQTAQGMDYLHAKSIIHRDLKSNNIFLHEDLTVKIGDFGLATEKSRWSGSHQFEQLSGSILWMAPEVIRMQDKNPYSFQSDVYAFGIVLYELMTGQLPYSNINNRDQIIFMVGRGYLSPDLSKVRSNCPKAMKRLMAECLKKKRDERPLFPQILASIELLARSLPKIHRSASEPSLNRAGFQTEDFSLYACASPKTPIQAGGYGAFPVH
Source text: as §1

c-Raf-1 = c-Raf-1 (Homo sapiens, UniProt P04049); test: Kinase activity assay, c-Raf-1; settings: under the test conditions employed; read-out: activity toward kinase c-Raf-1, IC50
Chain of c-Raf-1 (P04049 whole entry): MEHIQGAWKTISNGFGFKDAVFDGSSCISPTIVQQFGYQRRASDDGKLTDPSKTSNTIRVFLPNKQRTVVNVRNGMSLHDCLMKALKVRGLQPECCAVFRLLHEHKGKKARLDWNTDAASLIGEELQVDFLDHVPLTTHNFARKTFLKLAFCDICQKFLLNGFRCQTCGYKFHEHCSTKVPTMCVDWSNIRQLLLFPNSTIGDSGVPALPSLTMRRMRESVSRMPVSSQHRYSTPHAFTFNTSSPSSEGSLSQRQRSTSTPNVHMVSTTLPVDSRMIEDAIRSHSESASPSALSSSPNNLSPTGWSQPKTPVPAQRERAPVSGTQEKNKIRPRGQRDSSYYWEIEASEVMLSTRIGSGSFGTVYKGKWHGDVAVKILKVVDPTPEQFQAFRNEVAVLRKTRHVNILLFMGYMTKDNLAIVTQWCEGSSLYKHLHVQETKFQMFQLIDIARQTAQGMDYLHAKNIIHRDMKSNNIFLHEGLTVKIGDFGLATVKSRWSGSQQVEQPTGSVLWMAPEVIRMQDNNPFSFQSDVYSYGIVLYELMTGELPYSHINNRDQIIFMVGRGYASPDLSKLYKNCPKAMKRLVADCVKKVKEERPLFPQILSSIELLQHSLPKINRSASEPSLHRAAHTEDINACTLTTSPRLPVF
Source text: as §1

Fms = Fms (Homo sapiens, UniProt P07333); test: Kinase activity assay, Fms; settings: under the test conditions employed; read-out: activity toward kinase Fms, IC50
Chain of Fms (P07333 20-972): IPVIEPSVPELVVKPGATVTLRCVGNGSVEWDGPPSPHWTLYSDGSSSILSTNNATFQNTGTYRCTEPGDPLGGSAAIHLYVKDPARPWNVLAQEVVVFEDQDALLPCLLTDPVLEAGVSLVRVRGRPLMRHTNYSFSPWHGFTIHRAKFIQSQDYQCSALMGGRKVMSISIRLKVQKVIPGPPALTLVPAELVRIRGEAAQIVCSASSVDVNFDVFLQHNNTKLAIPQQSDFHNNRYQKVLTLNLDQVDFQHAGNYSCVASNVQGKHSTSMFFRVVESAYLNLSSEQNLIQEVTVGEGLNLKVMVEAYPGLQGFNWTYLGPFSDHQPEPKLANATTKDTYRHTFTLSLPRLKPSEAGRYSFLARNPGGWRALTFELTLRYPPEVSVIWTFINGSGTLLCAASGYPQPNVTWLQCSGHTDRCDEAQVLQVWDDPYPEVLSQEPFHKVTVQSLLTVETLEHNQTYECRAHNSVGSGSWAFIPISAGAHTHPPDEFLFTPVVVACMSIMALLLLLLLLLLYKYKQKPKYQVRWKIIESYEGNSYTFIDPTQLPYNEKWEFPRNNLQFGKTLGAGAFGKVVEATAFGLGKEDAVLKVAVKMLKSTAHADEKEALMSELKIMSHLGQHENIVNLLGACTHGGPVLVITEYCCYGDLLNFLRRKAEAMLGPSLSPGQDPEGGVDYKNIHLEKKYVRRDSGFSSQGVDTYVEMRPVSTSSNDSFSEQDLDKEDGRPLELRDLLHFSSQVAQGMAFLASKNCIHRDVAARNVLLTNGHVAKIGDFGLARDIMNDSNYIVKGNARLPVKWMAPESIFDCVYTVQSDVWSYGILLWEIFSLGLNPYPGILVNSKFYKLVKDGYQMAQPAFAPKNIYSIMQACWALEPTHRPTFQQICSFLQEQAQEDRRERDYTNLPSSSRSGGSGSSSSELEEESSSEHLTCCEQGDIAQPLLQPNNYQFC
Source text: as §1

Kdr = Kdr (Homo sapiens, UniProt P35968); test: Kinase activity assay, Kdr; settings: under the test conditions employed; read-out: activity toward kinase Kdr, IC50
Chain of Kdr (P35968 20-1356): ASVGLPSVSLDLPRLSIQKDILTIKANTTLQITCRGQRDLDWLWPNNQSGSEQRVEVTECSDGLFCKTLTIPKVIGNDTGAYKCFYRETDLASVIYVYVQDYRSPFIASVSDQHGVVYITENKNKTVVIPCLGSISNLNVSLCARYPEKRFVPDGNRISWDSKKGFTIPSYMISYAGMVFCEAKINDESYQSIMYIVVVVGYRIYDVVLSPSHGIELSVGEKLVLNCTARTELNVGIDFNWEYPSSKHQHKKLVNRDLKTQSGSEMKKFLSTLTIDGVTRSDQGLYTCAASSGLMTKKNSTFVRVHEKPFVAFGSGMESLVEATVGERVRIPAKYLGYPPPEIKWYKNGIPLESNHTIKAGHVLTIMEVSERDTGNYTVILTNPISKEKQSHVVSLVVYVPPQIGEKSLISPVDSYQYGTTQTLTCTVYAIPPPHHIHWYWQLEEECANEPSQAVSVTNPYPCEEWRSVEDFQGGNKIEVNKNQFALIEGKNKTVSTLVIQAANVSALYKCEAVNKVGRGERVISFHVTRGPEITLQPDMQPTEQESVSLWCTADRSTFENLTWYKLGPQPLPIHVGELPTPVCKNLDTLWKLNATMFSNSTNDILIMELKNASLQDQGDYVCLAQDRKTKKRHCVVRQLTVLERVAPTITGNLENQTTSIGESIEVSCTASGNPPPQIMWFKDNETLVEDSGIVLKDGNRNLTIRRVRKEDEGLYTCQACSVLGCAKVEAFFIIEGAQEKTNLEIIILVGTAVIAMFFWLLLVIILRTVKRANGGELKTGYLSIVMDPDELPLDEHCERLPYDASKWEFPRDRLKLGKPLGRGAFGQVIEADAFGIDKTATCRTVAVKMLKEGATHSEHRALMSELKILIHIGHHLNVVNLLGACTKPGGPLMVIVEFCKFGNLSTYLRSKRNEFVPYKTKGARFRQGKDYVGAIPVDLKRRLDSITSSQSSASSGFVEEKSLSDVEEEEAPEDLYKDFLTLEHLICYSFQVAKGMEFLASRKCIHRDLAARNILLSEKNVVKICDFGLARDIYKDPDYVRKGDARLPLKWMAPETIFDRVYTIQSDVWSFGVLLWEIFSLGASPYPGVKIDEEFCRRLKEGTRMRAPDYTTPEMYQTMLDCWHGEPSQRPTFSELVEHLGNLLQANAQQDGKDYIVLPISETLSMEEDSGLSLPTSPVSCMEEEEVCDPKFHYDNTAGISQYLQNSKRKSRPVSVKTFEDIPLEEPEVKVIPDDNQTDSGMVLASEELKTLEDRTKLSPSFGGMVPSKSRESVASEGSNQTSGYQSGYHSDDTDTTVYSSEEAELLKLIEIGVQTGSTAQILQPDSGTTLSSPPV
Source text: as §1

Kit = Kit (Homo sapiens, UniProt P10721); test: Kinase activity assay, Kit; settings: under the test conditions employed; read-out: activity toward kinase Kit, IC50
Source text: as §1

Src = Src (Homo sapiens, UniProt P12931); test: Kinase activity assay, Src; settings: under the test conditions employed; read-out: activity toward kinase Src, IC50
Chain of Src (P12931 whole entry): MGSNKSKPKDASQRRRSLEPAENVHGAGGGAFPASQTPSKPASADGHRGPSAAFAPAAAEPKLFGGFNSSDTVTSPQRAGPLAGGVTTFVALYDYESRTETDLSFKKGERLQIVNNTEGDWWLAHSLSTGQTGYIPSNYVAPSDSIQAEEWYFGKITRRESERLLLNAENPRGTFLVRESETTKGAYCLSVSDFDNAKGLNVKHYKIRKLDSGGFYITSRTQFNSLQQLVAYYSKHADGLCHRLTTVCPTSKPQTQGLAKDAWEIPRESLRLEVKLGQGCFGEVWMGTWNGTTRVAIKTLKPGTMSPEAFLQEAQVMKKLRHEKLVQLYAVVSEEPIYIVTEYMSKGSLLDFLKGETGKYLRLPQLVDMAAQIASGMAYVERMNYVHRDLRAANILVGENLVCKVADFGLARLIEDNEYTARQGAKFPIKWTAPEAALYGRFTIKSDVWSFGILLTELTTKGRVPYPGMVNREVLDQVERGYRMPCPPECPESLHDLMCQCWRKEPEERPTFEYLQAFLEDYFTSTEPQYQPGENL
Source text: as §1

B-Raf V600E/T529I = B-Raf V600E/T529I (Homo sapiens, UniProt P15056, T529I/V600E); test: Kinase activity assay, B-Raf V600E/T529I; settings: under the test conditions employed; read-out: activity toward kinase B-Raf V600E/T529I, IC50
Chain of B-Raf V600E/T529I (P15056 whole entry T529I/V600E): as the sequence (P15056 whole entry V600E) above, with T529I counted along it
Source text: as §1

Btk = Btk (Homo sapiens, UniProt Q06187); test: Kinase activity assay, Btk; settings: under the test conditions employed; read-out: activity toward kinase Btk, IC50
Chain of Btk (Q06187 whole entry): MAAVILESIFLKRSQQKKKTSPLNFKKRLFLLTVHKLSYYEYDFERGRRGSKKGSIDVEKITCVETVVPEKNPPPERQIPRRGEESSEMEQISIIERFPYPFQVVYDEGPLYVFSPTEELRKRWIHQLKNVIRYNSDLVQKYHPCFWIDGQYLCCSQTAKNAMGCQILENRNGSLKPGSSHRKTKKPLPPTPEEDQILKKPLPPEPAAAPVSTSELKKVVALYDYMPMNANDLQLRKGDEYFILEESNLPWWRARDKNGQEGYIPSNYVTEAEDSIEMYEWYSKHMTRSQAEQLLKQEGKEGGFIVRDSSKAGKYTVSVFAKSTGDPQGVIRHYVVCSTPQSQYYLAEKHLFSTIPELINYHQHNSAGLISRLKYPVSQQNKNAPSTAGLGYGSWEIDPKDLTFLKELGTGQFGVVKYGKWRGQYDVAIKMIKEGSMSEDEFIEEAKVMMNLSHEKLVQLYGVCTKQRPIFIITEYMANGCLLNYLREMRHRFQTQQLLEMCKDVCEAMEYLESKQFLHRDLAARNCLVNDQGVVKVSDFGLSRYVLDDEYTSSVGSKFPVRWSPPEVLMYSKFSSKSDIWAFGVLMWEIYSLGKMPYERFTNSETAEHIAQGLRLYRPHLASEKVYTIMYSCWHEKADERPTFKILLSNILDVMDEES
Source text: as §1

Jnk1 = Jnk1 (Homo sapiens, UniProt P45983); test: Kinase activity assay, Jnk1; settings: under the test conditions employed; read-out: activity toward kinase Jnk1, IC50
Source text: as §1

Flt1 = Flt1 (Homo sapiens, UniProt P17948); test: Kinase activity assay, Flt1; settings: under the test conditions employed; read-out: activity toward kinase Flt1, IC50
Source text: as §1

Measured: IC50

Chain of B-Raf (P15056 whole entry): as the sequence (P15056 whole entry V600E) above, with E600V counted along it

Cc1cc(S(=O)(=O)Nc2ccc(F)c(C(=O)c3c[nH]c4ncc(Cl)cc34)c2F)c(C(F)(F)F)o1 [Compound P-0002, 5-Methyl-2-trifluoromethyl-furan-3-sulfonic acid [3-(5-chloro-1H-pyrrolo[2,3-b]pyridine-3-carbonyl)-2,4-difluoro-phenyl]-amide]
not listed: B-Raf V600E/T529I | Btk | Jnk1 | Flt1
≤ 10 µM: all other assays above

O=C(c1c(F)ccc(NS(=O)(=O)c2ccc(-c3cnco3)s2)c1F)c1c[nH]c2ncc(Cl)cc12 [Compound P-0003, 5-Oxazol-5-yl-thiophene-2-sulfonic acid [3-(5-chloro-1H-pyrrolo[2,3-b]pyridine-3-carbonyl)-2,4-difluoro-phenyl]-amide]
not listed: Btk | Jnk1 | Flt1
≤ 10 µM: all other assays above

O=C(c1c(F)ccc(NS(=O)(=O)c2ccc3oc(=O)ccc3c2)c1F)c1c[nH]c2ncc(Cl)cc12 [Compound P-0005, 2-Oxo-2H-chromene-6-sulfonic acid [3-(5-chloro-1H-pyrrolo[2,3-b]pyridine-3-carbonyl)-2,4-difluoro-phenyl]-amide]
not listed: Btk | Jnk1 | Flt1
≤ 10 µM: all other assays above

O=C(c1c(F)ccc(NS(=O)(=O)c2ccc(-c3ccno3)s2)c1F)c1c[nH]c2ncc(Cl)cc12 [Compound P-0006, 5-Isoxazol-5-yl-thiophene-2-sulfonic acid [3-(5-chloro-1H-pyrrolo[2,3-b]pyridine-3-carbonyl)-2,4-difluoro-phenyl]-amide]
not listed: Kdr | Btk | Jnk1 | Flt1
≤ 10 µM: all other assays above

CC(C)Oc1ccc(S(=O)(=O)Nc2ccc(F)c(C(=O)c3c[nH]c4ncc(Cl)cc34)c2F)cc1 [Compound P-0011, N-[3-(5-Chloro-1H-pyrrolo[2,3-b]pyridine-3-carbonyl)-2,4-difluoro-phenyl]-4-isopropoxy-benzenesulfonamide]
≤ 10 µM: B-Raf | c-Raf-1 | Fms | Kdr | Kit | Src

O=C(c1c(F)ccc(NS(=O)(=O)c2ccc3nsnc3c2)c1F)c1c[nH]c2ncc(Cl)cc12 [Compound P-0013, Benzo[1,2,5]thiadiazoe-5-sulfonic acid [3-(5-chloro-1H-pyrrolo[2,3-b]pyridine-3-carbonyl)-2,4-difluoro-phenyl]-amide]
not listed: B-Raf V600E/T529I | Jnk1 | Flt1
≤ 10 µM: all other assays above

Cc1c[nH]c(-c2cnc3[nH]cc(C(=O)c4c(F)ccc(NS(=O)(=O)c5ccc(C(C)C)cc5)c4F)c3c2)n1 [Compound P-0019, N-{2,4-Difluoro-3-[5-(4-methyl-1H-imidazol-2-yl)-1H-pyrrolo[2,3-b]pyridine-3-carbonyl]-phenyl}-4-isopropyl-benzenesulfonamide]
not listed: Fms | B-Raf V600E/T529I | Btk | Flt1
≤ 10 µM: all other assays above

CCCc1ccc(S(=O)(=O)Nc2ccc(F)c(C(=O)c3c[nH]c4ncc(-c5cnn(C)c5)cc34)c2F)cc1 [Compound P-0021, N-{2,4-Difluoro-3-[5-(1-methyl-1H-pyrazol-4-yl)-1H-pyrrolo[2,3-b]pyridine-3-carbonyl]-phenyl}-4-propyl-benzenesulfonamide]
not listed: B-Raf V600E/T529I | Jnk1 | Flt1
≤ 10 µM: all other assays above

CC(C)c1ccc(S(=O)(=O)Nc2ccc(F)c(C(=O)c3c[nH]c4ncc(-c5cnn(C)c5)cc34)c2F)cc1 [Compound P-0022, N-{2,4-Difluoro-3-[5-(1-methyl-1H-pyrazol-4-yl)-1H-pyrrolo[2,3-b]pyridine-3-carbonyl]-phenyl}-4-isopropyl-benzenesulfonamide]
not listed: B-Raf V600E/T529I | Jnk1 | Flt1
≤ 10 µM: all other assays above

CCCc1ccc(S(=O)(=O)Nc2ccc(F)c(C(=O)c3c[nH]c4ncc(-c5ncc(C)[nH]5)cc34)c2F)cc1 [Compound P-0023, N-{2,4-Difluoro-3-[5-(5-methyl-1H-imidazol-2-yl)-1H-pyrrolo[2,3-b]pyridine-3-carbonyl]-phenyl}-4-propyl-benzenesulfonamide]
not listed: B-Raf V600E/T529I | Jnk1 | Flt1
≤ 10 µM: all other assays above

Cc1cnc(-c2cnc3[nH]cc(C(=O)c4c(F)ccc(NS(=O)(=O)c5cccc(OC(F)F)c5)c4F)c3c2)[nH]1 [Compound P-0024, 3-Difluoromethoxy-N-{2,4-difluoro-3-[5-(5-methyl-1H-imidazol-2-yl)-1H-pyrrolo[2,3-b]pyridine-3-carbonyl]-phenyl}-benzenesulfonamide]
not listed: c-Raf-1 | B-Raf V600E/T529I | Jnk1 | Flt1
≤ 10 µM: all other assays above

Cc1cnc(-c2cnc3[nH]cc(C(=O)c4c(F)ccc(NS(=O)(=O)c5ccc(C(F)(F)F)cc5)c4F)c3c2)[nH]1 [Compound P-0025, N-{2,4-Difluoro-3-[5-(5-methyl-1H-imidazol-2-yl)-1H-pyrrolo[2,3-b]pyridine-3-carbonyl]-phenyl}-4-trifluoromethyl-benzenesulfonamide]
not listed: Fms | B-Raf V600E/T529I | Btk
≤ 10 µM: all other assays above

CCCc1ccc(S(=O)(=O)Nc2ccc(F)c(C(=O)c3c[nH]c4ncc(-c5nccn5C)cc34)c2F)cc1 [Compound P-0026, N-{2,4-Difluoro-3-[5-(1-methyl-1H-imidazol-2-yl)-1H-pyrrolo[2,3-b]pyridine-3-carbonyl]-phenyl}-4-propyl-benzenesulfonamide]
≤ 10 µM: B-Raf | Flt1 | Kdr | Kit | Src

N#Cc1cnc2[nH]cc(C(=O)c3c(F)ccc(NS(=O)(=O)c4ccc(C(F)(F)F)cc4)c3F)c2c1 [Compound P-0031, N-[3-(5-Cyano-1H-pyrrolo[2,3-b]pyridine-3-carbonyl)-2,4-difluoro-phenyl]-4-trifluoromethyl-benzenesulfonamide]
≤ 10 µM: B-Raf | B-Raf V600E | c-Raf-1 | Flt1 | Src

Source: patent US7863289B2, “Compounds and methods for kinase modulation, and indications therefor” (Plexxikon, Inc., priority 2006, dated 2011)
